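Cultured in 96-well plates, cells were exposed to test compound for 48 hours across five concentrations. GI50: concentration for 50% inhibition of growth.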 Calls of active or inactive are those of the source. Rule as the data show it: active = GI50 up to about 1.1 µM and inactive = higher.
Assays:
Test in all cases: NCI tumour cell line growth inhibition, 48 h
ACHN = test system: ACHN
COLO 205 = test system: COLO 205
DU-145 = test system: DU-145
HCT-116 = test system: HCT-116
IGROV-1 = test system: IGROV-1
LOX IMVI = test system: LOX IMVI
M14 = test system: M14
MCF7 = test system: MCF7
Malme-3M = test system: Malme-3M
NCI-H23 = test system: NCI-H23
PC-3 = test system: PC-3
RXF 393 = test system: RXF 393
SF-539 = test system: SF-539
SK-MEL-2 = test system: SK-MEL-2
SN12C = test system: SN12C
SNB-19 = test system: SNB-19
SW-620 = test system: SW-620
A498 = test system: A498
KM12 = test system: KM12
MOLT-4 = test system: MOLT-4

Measured: GI50

CC1(C)CC(=O)C2=C(C1)NC(=S)C(C#N)C2c1ccccc1 (centres undefined)
inactive: ACHN > 100 µM | COLO 205 > 100 µM | DU-145 > 100 µM | HCT-116 > 100 µM | IGROV-1 > 100 µM | LOX IMVI > 100 µM | M14 > 100 µM | MCF7 > 100 µM | Malme-3M > 100 µM | NCI-H23 > 100 µM | PC-3 > 100 µM | RXF 393 > 100 µM | SF-539 > 100 µM | SK-MEL-2 > 100 µM | SN12C > 100 µM | SNB-19 > 100 µM | SW-620 > 100 µM

COc1cc(/C=C2\N=C(c3ccccc3)N(/N=C/c3cc4cc(C)ccc4nc3Cl)C2=O)cc(OC)c1OC
inactive: A498 28.1 µM | ACHN 34.2 µM | COLO 205 24.5 µM | DU-145 30.4 µM | HCT-116 33.7 µM | IGROV-1 33.3 µM | KM12 31.8 µM | LOX IMVI 32.1 µM | M14 39.4 µM | MCF7 27.4 µM | MOLT-4 20.6 µM | PC-3 18.1 µM | SF-539 23.4 µM | SK-MEL-2 17.9 µM | SN12C 61.8 µM | SNB-19 64.7 µM | SW-620 41.2 µM

O=C(CSC1=NCCN1)Nc1ccccc1
inactive: A498 35 µM | ACHN 22.4 µM | DU-145 33.7 µM | HCT-116 23.8 µM | IGROV-1 33.4 µM | KM12 48 µM | LOX IMVI 18 µM | M14 32.9 µM | MOLT-4 52.1 µM | Malme-3M 24.8 µM | NCI-H23 37.6 µM | PC-3 19.9 µM | RXF 393 13.8 µM | SK-MEL-2 17.8 µM | SN12C 17.5 µM | SNB-19 69.3 µM | SW-620 25.8 µM

O=C(O)c1nc2ccccc2nc1Nc1ccc(Cl)c(Cl)c1
inactive: A498 13.1 µM | ACHN 29.5 µM | COLO 205 23.5 µM | DU-145 36.4 µM | HCT-116 22.5 µM | IGROV-1 20.5 µM | KM12 10.8 µM | LOX IMVI 28.8 µM | M14 24.5 µM | MOLT-4 15.8 µM | Malme-3M 18.4 µM | NCI-H23 17.7 µM | PC-3 32.6 µM | RXF 393 25.4 µM | SF-539 19.9 µM | SN12C 20.1 µM | SNB-19 24.9 µM | SW-620 31.7 µM

O=C(Cn1c2c(c3ccccc31)CCCC2)N1CCCCC1
inactive: ACHN > 100 µM | COLO 205 > 100 µM | HCT-116 > 100 µM | IGROV-1 > 100 µM | LOX IMVI > 100 µM | M14 > 100 µM | MCF7 > 100 µM | MOLT-4 > 100 µM | Malme-3M > 100 µM | NCI-H23 > 100 µM | PC-3 > 100 µM | SF-539 86.7 µM | SK-MEL-2 > 100 µM | SN12C > 100 µM | SNB-19 > 100 µM | SW-620 > 100 µM

[O-][S+](Nc1ccccc1)c1ccc(-c2ccccc2)cc1 (centres undefined)
inactive: ACHN > 100 µM | COLO 205 72.3 µM | DU-145 > 100 µM | HCT-116 > 100 µM | IGROV-1 > 100 µM | KM12 58.6 µM | LOX IMVI 28.5 µM | MCF7 > 100 µM | MOLT-4 > 100 µM | Malme-3M > 100 µM | NCI-H23 > 100 µM | SF-539 > 100 µM | SN12C > 100 µM | SNB-19 > 100 µM | SW-620 > 100 µM

COC(=O)C12C(=O)CC3CCC1C32C(=O)OC (centres undefined)
inactive: ACHN > 100 µM | COLO 205 > 100 µM | DU-145 > 100 µM | HCT-116 > 100 µM | IGROV-1 > 100 µM | KM12 > 100 µM | LOX IMVI > 100 µM | M14 > 100 µM | MCF7 > 100 µM | MOLT-4 > 100 µM | Malme-3M > 100 µM | NCI-H23 > 100 µM | PC-3 > 100 µM | RXF 393 > 100 µM | SF-539 > 100 µM | SK-MEL-2 > 100 µM | SN12C > 100 µM | SNB-19 > 100 µM | SW-620 > 100 µM

COc1cc2c(cc1OC)CC(N=[N+]=[N-])c1cc(OC)c(OC)cc1/C=C\2 (centres undefined)
inactive: A498 > 100 µM | ACHN 59 µM | COLO 205 37.4 µM | DU-145 > 100 µM | HCT-116 28.7 µM | IGROV-1 50.9 µM | KM12 30.2 µM | LOX IMVI 40.6 µM | M14 24.2 µM | MCF7 49.7 µM | MOLT-4 41 µM | PC-3 30.8 µM | SF-539 39.9 µM | SK-MEL-2 39.5 µM | SN12C 68.5 µM | SNB-19 34 µM | SW-620 83.6 µM

Cc1ccc2nc(Cl)c(/C=N/N3C(=O)/C(=C/c4ccc(N(C)C)cc4)N=C3c3ccccc3)cc2c1
inactive: A498 43.8 µM | ACHN 76.9 µM | COLO 205 51.1 µM | DU-145 80 µM | HCT-116 39.4 µM | IGROV-1 29 µM | KM12 40.7 µM | LOX IMVI 31.5 µM | M14 47.8 µM | MCF7 29 µM | MOLT-4 24.4 µM | PC-3 47.6 µM | SF-539 18.2 µM | SK-MEL-2 21.9 µM | SN12C 80.7 µM | SNB-19 > 100 µM | SW-620 57.8 µM

CCC/C=C/C=C/C1CC(O)C(O)C(=O)C1CO (centres undefined)
inactive: ACHN > 100 µM | COLO 205 > 100 µM | DU-145 > 100 µM | HCT-116 > 100 µM | IGROV-1 > 100 µM | KM12 > 100 µM | LOX IMVI > 100 µM | M14 > 100 µM | MCF7 > 100 µM | NCI-H23 > 100 µM | PC-3 51.1 µM | RXF 393 > 100 µM | SF-539 > 100 µM | SK-MEL-2 > 100 µM | SN12C > 100 µM | SNB-19 > 100 µM | SW-620 > 100 µM

CC(C)(C)C(=O)C(N)C(=O)C(C)(C)C
inactive: ACHN > 100 µM | COLO 205 > 100 µM | DU-145 > 100 µM | HCT-116 > 100 µM | KM12 > 100 µM | LOX IMVI > 100 µM | M14 > 100 µM | MCF7 > 100 µM | MOLT-4 9.57 µM | Malme-3M > 100 µM | PC-3 > 100 µM | RXF 393 > 100 µM | SF-539 > 100 µM | SK-MEL-2 > 100 µM | SN12C > 100 µM | SNB-19 > 100 µM | SW-620 > 100 µM

O=C(O)c1ccccn1 [2-PICOLINIC ACID]
inactive: A498 > 100 µM | ACHN > 100 µM | COLO 205 > 100 µM | HCT-116 > 100 µM | IGROV-1 > 100 µM | KM12 > 100 µM | M14 > 100 µM | MCF7 > 100 µM | MOLT-4 > 100 µM | NCI-H23 > 100 µM | PC-3 > 100 µM | RXF 393 > 100 µM | SF-539 > 100 µM | SK-MEL-2 > 100 µM | SN12C > 100 µM | SNB-19 > 100 µM | SW-620 > 100 µM
